Measurements reported in patent publication US9428564B2, “Muscle function enhancing peptide” (Universitatsklinikum Heidelberg, priority 2009, dated 2016).
“Also recorded” adds a separate entry of the source. Read-outs that look alike come from different tables or passages of the source. Where a SMILES comes first, the peptide text is derived from it. Where no end group is shown, it is not given here.

Key:
[1] = test system: permeabilized cardiomyocytes; experiment: Ca2+-spark frequency in β-escin permeabilized cardiomyocytes; assay type: cell-based, rabbit
Procedure: Adult ventricular rabbit cardiomyocytes were isolated from four different animals as previously described (Loughrey C. M. et al., 2004, J. Physiol. 556:919-934) and permeabilized using β-escin (0.1 mg/ml). The permeabilized cells were incubated for 1 minute with rhodamine-labeled human S100A1 protein (0.1 μM) or FITC-labeled S100A1 C-terminal 20-mer peptide (0.1 μM) fused to a hydrophilic linker (amino acids 75 to 94 of human S100A1 fused to D-K-D-D-P-P (SEQ ID NO: 354)). Cells were monitored using a Bio-Rad 2000 laser scanning confocal microscope (LSCM). A striated staining pattern can be observed that resembles the ryanodine staining pattern (FIG. 4).
Isolated cardiomyocytes were perfused with a mock intracellular solution and permeabilized using β-escin (0.1 mg/ml). Fluo-3 free acid (10 μM) present in the perfusing solution was excited at 488 nm (Kr-laser) and measured at >515 nm applying epifluorescence optics of an inverted microscope with a ×60-1.2 NA water-immersion objective lens. Fluorescence was acquired in line scan mode at 2 ms line^−1; pixel dimension was 0.3 μm (512 pixels scan^−1; zoom=1.4). The scanning laser line orientated parallel with the long axis and placed approximately equidistant between the outer edge of the cell and the nucleus/nuclei, to ensure the nuclear area was not included in the scan line. To enable this trace to be converted to free calcium concentration ([Ca^2+]) a series of calibration solutions were used at the end of each Ca^2+-spark measurement period incorporating 10 mM EGTA. In all experiments concerning Ca^2+-sparks, the [Ca^2+] in the test solution was 145-160 nM. Ca^2+-sparks recorded in Fluo-3-containing solutions were quantified using an automated detection and measurement algorithm. All Ca^2+-spark measurements were made within 7-8 min of cell permeabilization. This time was standardized to minimize loss of soluble proteins. S100A1 protein or S100A1-ct peptide was applied in mock solution using a gravity-fed perfusion system. […]

[2] = test system: intact rat ventricular cardiomyocytes; assay type: cell-based; conditions: not told
From the text: Equivalent bioactivity of native human S100A1 protein and the 20-mer C-terminal peptide was shown by the inventors in chemically permeabilized cardiac and skeletal muscle cell preparations enabling intracellular access and regulation of RyR2 and RyR1 function. FIG. 4 depicts a similar intracellular binding pattern for rhodamine-labeled recombinant human S100A1 protein (10415 Mw) (FIG. 4A/B) and the 20-mer FITC-labeled synthetic S100A1 C-terminal peptide (2258 Mw) (FIG. 4C/D).
S100A1ct6/11 refers to the peptide D-K-D-D-P-P-Y-V-V-L-V-A-A-L-T-V-A (SEQ ID NO: 372), wherein the sequence D-K-D-D-P-P (SEQ ID NO: 354) is a hydrophilic motif and the sequence Y-V-V-L-V-A-A-L-T-V-A (SEQ ID NO: 390) are amino acids 75 to 85 of the human S100A1 protein.
FITC-labeled S100A1ct6/11 was incubated with intact rat ventricular cardiomyocytes for 15 minutes before the cells were monitored using confocal laser scanning microscopy. Endogenous S100A1 protein was stained using a conventional immunofluorescence protocol.

[3] = test system: isolated rat ventricular cardiomyocytes; assay type: cell-based; conditions: for effect on calcium transient amplitudes: field-stimulated (1 Hz) isolated rat ventricular cardiomyocytes, FIG. 25; for inotropic effect (calcium transients): basal conditions, intact field-stimulated cardiomyocytes; for inotropic effect (calcium transients) under βAR stimulation: β-AR stimulated, 10^−9 M Isoproterenol
[4] = test system: permeabilized EDL murine skeletal muscle fibers; experiment: Isometric twitch force in permeabilized skeletal muscle fibers; assay type: cell-based, mouse
Procedure: Muscle Fiber Preparation and Experimental Solutions. All of the animals were handled according to the guidelines of the animal care committee of the University of Heidelberg. Male BALB/c mice (3-6-months-old) were sacrificed by an overdose of carbon dioxide, and muscle fiber preparation was carried out as previously described (Fink R. H. and Stephenson D. G., 1987, Pflugers Arch. Eur. J. Physiol. 409:374-380; Makabe M. et al., 1996, Pflugers Arch. Eur. J. Physiol. 432: 717-726). Either EDL (M. ext. dig. longum) or Soleus was isolated, and a small fiber bundle containing two to four single fibers (between 80 and 150 μm in diameter and 3-4-mm-long) was dissected in paraffin oil. […] The free ion concentrations were calculated with the computer program REACT (version 2.0) from G. L. Smith (Glasgow, Scotland). […]
Muscle fibers were skinned for 5 min in skinning solution while the sarcomere length was adjusted to 2.6±0.1 μm using the diffraction pattern of a helium-neon laser. […] Maximum force was measured in the high activating solution at pCa 4.28 and 5 mM caffeine. […] Several control transients were recorded before the fiber was exposed to the S100A1 protein or the S100A1 peptide mixture (N/H/C) or the C-terminal 20-mer alone, and the experiment was repeated as outlined above. […] The correlation coefficients were calculated to determine the accuracy of the fit. […]

[5] = test system: adult intact cardiomyocytes; experiment: Calcium homeostasis in adult intact cardiomyocytes; assay type: cell-based
skeletal muscle fibers = experiment: Calcium homeostasis in intact skeletal muscle fibers; assay type: cell-based

S100A1 C-terminal 20-mer peptide fused to a hydrophilic linker: amino acids 75 to 94 of human S100A1 fused to D-K-D-D-P-P (SEQ ID NO: 354) (YVVLVAALTVACNNFFWENS; also: fused to hydrophilic linker D-K-D-D-P-P, end not given here; UniProt P23297 75-94, looked up, fragment) [reference compound]
diastolic calcium spark frequency [1]: decrease calcium spark frequency

CC(C)C[C@H](NC(=O)[C@H](C)NC(=O)[C@H](C)NC(=O)[C@@H](NC(=O)[C@H](CC(C)C)NC(=O)[C@@H](NC(=O)[C@@H](NC(=O)[C@H](Cc1ccc(O)cc1)NC(=O)[C@@H]1CCCN1C(=O)[C@@H]1CCCN1C(=O)[C@H](CC(=O)O)NC(=O)[C@H](CC(=O)O)NC(=O)[C@H](CCCCN)NC(=O)[C@@H](N)CC(=O)O)C(C)C)C(C)C)C(C)C)C(=O)N[C@H](C(=O)N[C@H](C(=O)N[C@@H](C)C(=O)O)C(C)C)[C@@H](C)O [S100A1ct6/11, D-K-D-D-P-P-Y-V-V-L-V-A-A-L-T-V-A] (H-DKDDPPYVVLVAALTVA-OH; N-terminus and C-terminus assumed)
ability to permeate the cell membrane of intact cardiomyocytes [2]: cell permeable
EC50 [3]: 87 ± 6 nM

D-K-D-D-P-P (DKDDPP; hydrophilic motif) [linker, reference compound]
effect on calcium transient amplitudes [3]: do not exhibit the inotropic effect

D-K-D-D-P-P-V-V-L-V-A-A-L-T-V-A (DKDDPPVVLVAALTVA; amino acids 76 to 85 of human S100A1 fused to a hydrophilic motif) [N-76-85-C, amino acids 76 to 85 of human S100A1 fused to a hydrophilic linker (D-K-D-D-P-P)]
effect on calcium transient amplitudes ([3]; listed as peptide consisting of amino acids 76 to 85 of human S100A1 fused to a hydrophili): exerts the same inotropic function as the S100A1ct6/11 peptide

DKDDPP-YCVFLSCIAMM (DKDDPPYCVFLSCIAMM; amino acids 75 to 85 of S100A4 fused to a hydrophilic motif) [amino acids 75-85 of S100A4 fused to a hydrophilic motif, reference compound]
inotropic effect (calcium transients) [3]: fail to reproduce S100A1ct6/11 inotropic actions
inotropic effect (calcium transients) under βAR stimulation [3]: neither S100A4ct nor S100Bct mimic S100A1ct6/11 inotropic effects

N-77-85-C: amino acids 77 to 85 of human S100A1 protein set forth in SEQ ID NO: 1 (VLVAALTVA; listed as Homo sapiens)
effect on calcium transient amplitudes [3]: abolishes the inotropic effect

N-78-85-C: amino acids 78 to 85 of human S100A1 protein set forth in SEQ ID NO: 1 (LVAALTVA; listed as Homo sapiens)
effect on calcium transient amplitudes [3]: abolishes the inotropic effect

N-79-85-C: amino acids 79 to 85 of human S100A1 protein set forth in SEQ ID NO: 1 (VAALTVA; listed as Homo sapiens)
effect on calcium transient amplitudes [3]: abolishes the inotropic effect

DKDDPP-FMAFVAMVTTA (DKDDPPFMAFVAMVTTA; amino acids 75 to 85 of S100B fused to a hydrophilic motif) [amino acids 75-85 of S100B fused to a hydrophilic motif, reference compound]
inotropic effect (calcium transients) [3]: fail to reproduce S100A1ct6/11 inotropic actions
inotropic effect (calcium transients) under βAR stimulation [3]: neither S100A4ct nor S100Bct mimic S100A1ct6/11 inotropic effects

CC(C)C[C@H](NC(=O)[C@H](C)NC(=O)[C@H](C)NC(=O)[C@@H](NC(=O)[C@H](CC(C)C)NC(=O)[C@@H](NC(=O)[C@@H](NC(=O)[C@@H](N)Cc1ccc(O)cc1)C(C)C)C(C)C)C(C)C)C(=O)N[C@H](C(=O)N[C@H](C(=O)N[C@@H](C)C(=O)N[C@@H](CS)C(=O)N[C@@H](CC(N)=O)C(=O)N[C@@H](CC(N)=O)C(=O)N[C@@H](Cc1ccccc1)C(=O)N[C@@H](Cc1ccccc1)C(=O)N[C@@H](Cc1c[nH]c2ccccc12)C(=O)N[C@@H](CCC(=O)O)C(=O)N[C@@H](CC(N)=O)C(=O)N[C@@H](CO)C(=O)O)C(C)C)[C@@H](C)O [20-mer S100A1 C-terminal peptide, YVVLVAALTVACNNFFWENS, reference compound] (H-YVVLVAALTVACNNFFWENS-OH; N-terminus and C-terminus assumed)
ability to permeate the cell membrane of intact cardiomyocytes [2]: cell-impermeable

B1: S100A1 protein: native human S100A1 protein, 94 amino acids, SEQ ID NO: 1 (protein, listed as Homo sapiens)
chain: MGSELETAMETLINVFHAHSGKEGDKYKLSKKELKELLQTELSGFLDAQKDVDAVDKVMKELDENGDGEVDFQEYVVLVAALTVACNNFFWENS
RyR2 activity [1]: decreases
diastolic calcium spark frequency [1]: decrease calcium spark frequency; also recorded: decreases
isometric twitch force [4]: enhances; also recorded: equivalent biological potency to enhance isometric force
isometric twitch force ([4]; listed as full-length S100A1 protein): has a potency to enhance isometric twitch force
calcium homeostasis [5]: does not alter
calcium homeostasis (skeletal muscle fibers): does not alter
